From ChEMBL document CHEMBL4359924, “Discovery of a novel 3,4-dimethylcinnoline carboxamide M4 positive allosteric modulator (PAM) chemotype via scaffold hopping” (Bioorg Med Chem Lett, 2019)

Tests used:
[1] = molecular target: Muscarinic acetylcholine receptor M4 (Homo sapiens) (UniProt P08173); assay: Positive allosteric modulation of human M4 receptor expressed in CHO cells co-expressing Gqi5 assessed as increase in acetylcholine-induced calcium mobilization incubated with EC20 ACh for 140 secs and subsequent EC80 Ach addition further incubated for 120 secs by Fluo-4-AM dye based fluorescence …
Muscarinic acetylcholine receptor M4 (Homo sapiens), sequence (P08173 whole entry, looked up): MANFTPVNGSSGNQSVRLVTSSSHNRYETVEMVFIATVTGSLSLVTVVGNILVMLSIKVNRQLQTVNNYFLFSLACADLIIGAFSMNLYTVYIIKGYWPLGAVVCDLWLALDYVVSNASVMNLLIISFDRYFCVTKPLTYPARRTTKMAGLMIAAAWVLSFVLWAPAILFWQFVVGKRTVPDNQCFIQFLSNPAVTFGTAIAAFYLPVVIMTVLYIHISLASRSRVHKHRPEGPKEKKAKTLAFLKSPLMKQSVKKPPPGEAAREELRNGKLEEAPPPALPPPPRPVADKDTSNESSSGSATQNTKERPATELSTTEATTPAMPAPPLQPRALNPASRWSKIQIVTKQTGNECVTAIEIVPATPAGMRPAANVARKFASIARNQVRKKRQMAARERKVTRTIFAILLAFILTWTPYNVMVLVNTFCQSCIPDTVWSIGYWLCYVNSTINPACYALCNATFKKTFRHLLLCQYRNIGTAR

[2] = Fraction unbound in human plasma; type: ADME, cell-free
[3] = Fraction unbound in rat plasma; type: ADME, cell-free
[4] = Fraction unbound in rat brain; type: ADME, tissue-based
[5] = Unbound brain to plasma concentration ratio in Sprague-Dawley rat at 0.2 mg/kg, iv measured for 0.25 hrs; type: ADME, organism-based; details: brain and plasma, read-out: K(p,uu,brain)
[6] = Intrinsic clearance in human microsomes; type: ADME, Microsome
[7] = Brain to plasma partition coefficient, Kp of the compound in Sprague-Dawley rat at 0.2 mg/kg, iv measured for 0.25 hrs; type: ADME, organism-based; details: brain and plasma
[8] = Intrinsic clearance in rat microsomes; type: ADME, Microsome

Compound | Emax [1] [%] | fraction unbound [2] | fraction unbound [3] | fraction unbound [4] | Kp uu at 0.25 h [5] | CLint scaled [6] [mL/min/kg] | Kp at 0.25 h [7] | CLint scaled [8] [mL/min/kg]
Cc1nnc2ccc(C(=O)NC3CN(c4cccc(F)n4)C3)cc2c1C | 84 | – | – | – | – | – | – | –
Cc1nnc2ccc(C(=O)NC3CN(c4ccc(F)c(F)c4)C3)cc2c1C | 82 | 0.051 | 0.002 | 0.022 | < 0.56 | 50 | < 0.05 | 26
Cc1nnc2ccc(C(=O)NC3CN(c4cc(Cl)ncc4Cl)C3)cc2c1C | 92 | 0.06 | 0.017 | 0.036 | 0.06 | 60 | 0.03 | 32
Cc1nnc2ccc(C(=O)NC3CN(c4ncc(C5CC5)cc4Cl)C3)cc2c1C | 77 | – | – | – | – | – | – | –
Cc1nnc2ccc(C(=O)NC3CN(c4ncccc4F)C3)cc2c1C | 83 | – | – | – | – | – | – | –
Cc1nnc2ccc(C(=O)NC3CN(c4ncc(F)cc4Cl)C3)cc2c1C | 80 | 0.048 | 0.015 | 0.036 | 0.29 | 79 | 0.12 | 17
Cc1nnc2ccc(C(=O)NC3CN(c4ccc(OC(F)F)nc4)C3)cc2c1C | 81 | – | – | – | – | – | – | –
Cc1nnc2ccc(C(=O)NC3CN(c4ncc(Cl)cc4F)C3)cc2c1C | 82 | 0.032 | 0.026 | 0.009 | 0.09 | 54 | 0.03 | 12
Cc1nnc2ccc(C(=O)NC3CN(c4ncc(C#N)cc4Cl)C3)cc2c1C | 72 | 0.03 | 0.008 | 0.042 | 0.21 | 63 | 0.04 | 17
Cc1nnc2ccc(C(=O)NC3CN(c4ccc(C#N)cn4)C3)cc2c1C | 81 | – | – | – | – | – | – | –
Cc1nnc2ccc(C(=O)NC3CN(c4ncccc4Cl)C3)cc2c1C | 84 | – | – | – | – | – | – | –
Cc1nnc2ccc(C(=O)NC3CN(c4ncc(OC(C)C)cn4)C3)cc2c1C | 88 | – | – | – | – | – | – | –
Cc1nnc2ccc(C(=O)NC3CN(c4cnc(C5CC5)cn4)C3)cc2c1C | 80 | – | – | – | – | – | – | –
Cc1nnc2ccc(C(=O)NC3CN(c4ncc(C(F)(F)F)cc4Cl)C3)cc2c1C | 76 | – | – | – | – | – | – | –
Cc1nnc2ccc(C(=O)NC3CN(c4ncc(C(F)(F)F)cn4)C3)cc2c1C | 77 | – | – | – | – | – | – | –
Cc1nnc2ccc(C(=O)NC3CN(c4cccc(C(F)(F)F)n4)C3)cc2c1C | 64 | – | – | – | – | – | – | –
Cc1nnc2ccc(C(=O)NC3CN(c4cccc(Cl)n4)C3)cc2c1C | 77 | – | – | – | – | – | – | –
COc1cc(N2CC(NC(=O)c3ccc4nnc(C)c(C)c4c3)C2)c(Cl)cn1 | 74 | 0.038 | 0.012 | 0.023 | 0.02 | 34 | 0.09 | 17
Cc1nnc2ccc(C(=O)NC3CN(c4ccc(Cl)cn4)C3)cc2c1C | 73 | – | – | – | – | – | – | –
